According to the supplement of paper PMC4858399:

Key:
Details in all cases: exposure time 48 h
[1] = test system: Caenorhabditis elegans N2; experiment: lowest effective concentration for larval growth inhibition (size below effect threshold); higher = less potent
How it was run: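 In 96-well plates, 50 C. elegans N2 L1 larvae per well were cultured at 20°C for 48 h in K-medium with killed bacteria and 1% DMSO, plus the chemical at 0.5, 1, 5, 10, 50, 100 or 200 µM. Size was measured as per-worm extinction on a Biosort and log-transformed into well means. Taking the first dose where the plate-adjusted mean size sits under 5.665 and stays there at higher doses gives the lowest effective concentration.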

[2] = test system: Caenorhabditis elegans N2; experiment: AC50 for larval growth inhibition (Hill fit); higher = less potent
How it was run: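 Synchronised C. elegans N2 L1 larvae, 50 per well in 96-well plates, were grown at 20°C for 48 h in K-medium with killed OP50, 1% DMSO and 0.5–200 µM chemical. Worm size was read on a COPAS Biosort as extinction, log-transformed and averaged per well, and only wells holding at least 10 worms were kept. AC50 was obtained by a constrained Hill fit using weighted genetic-algorithm regression, with out-of-range values censored.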

[3] = test system: Caenorhabditis elegans N2; experiment: mean nematode size ln(EXT) after 48 h, plate-adjusted (DMSO control set to 6) (ln(EXT), control-adjusted); higher = larger nematodes / less growth inhibition
How it was run: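 Synchronised C. elegans N2 L1 larvae were grown for 48 h at 20°C in K-medium containing killed OP50, 1% DMSO and 0.5–200 µM chemical, at 50 per well and 4–6 wells per treatment. The Biosort recorded extinction for each worm, and a growth model removed debris. Worm size was obtained by natural-logging these values and averaging them per well. For plate adjustment, the vehicle control mean was subtracted and 6 was added.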

| Structure (SMILES) | lowest effective concentration [1] | AC50 for larval growth inhibition [2] | mean nematode size ln(EXT) (ln) ([3]; 0.5 µM) | mean nematode size ln(EXT) (ln) ([3]; 1 µM) | mean nematode size ln(EXT) (ln) ([3]; 5 µM) | mean nematode size ln(EXT) (ln) ([3]; 10 µM) | mean nematode size ln(EXT) (ln) ([3]; 50 µM) | mean nematode size ln(EXT) (ln) ([3]; 100 µM) | mean nematode size ln(EXT) (ln) ([3]; 200 µM) |
| --- | --- | --- | --- | --- | --- | --- | --- | --- | --- |
| CCCOc1nn(C(=O)NS(=O)(=O)c2ccccc2C(=O)OC)c(=O)n1C [Propoxycarbazone-sodium] | 200 µM | > 200 µM | 5.79 | 5.97 | 6.22 | 6.16 | 5.99 | 5.96 | 5.38 |
| CCCOC(=O)c1cc(O)c(O)c(O)c1 [Propyl gallate] | 200 µM | 126 µM | 5.91 | 5.94 | 6.05 | 5.78 | 5.95 | 5.81 | 5.54 |
| C#CC(C)(C)NC(=O)c1cc(Cl)cc(Cl)c1 [Propyzamide] | 200 µM | > 200 µM | 5.98 | 5.91 | 5.98 | 6.01 | 5.92 | 5.91 | 5.63 |
| COC(=O)N(OC)c1ccccc1COc1ccn(-c2ccc(Cl)cc2)n1 [Pyraclostrobin] | 50 µM | 97.6 µM | 6 | 5.89 | 5.83 | 5.89 | 5.21 | 4.93 | 4.43 |
| c1cc2ccc3cccc4ccc(c1)c2c34 [Pyrene] | 1 µM | 4.29 µM | 5.71 | 5.58 | 4.64 | 4.52 | 4.28 | 4.05 | 3.59 |
| CC(C)(C)c1ccc(CSc2cnn(C(C)(C)C)c(=O)c2Cl)cc1 [Pyridaben] | ≤ 0.5 µM | < 0.5 µM | 4.73 | 4.44 | 4.31 | 4.22 | 4.14 | 3.92 | 3.87 |
| Cc1ncc(CO)c(CO)c1O [Pyridoxine] | 200 µM | > 200 µM | 5.84 | 5.88 | 5.86 | 5.83 | 5.87 | 5.92 | 5.63 |
| CCc1nc(N)nc(N)c1-c1ccc(Cl)cc1 [Pyrimethamine] | 50 µM | > 200 µM | 5.86 | 5.91 | 6.02 | 5.67 | 5.66 | 5.43 | 4.91 |
| Cc1cc(C)nc(Nc2ccccc2)n1 [Pyrimethanil] | 200 µM | 184 µM | 6 | 5.86 | 5.84 | 5.84 | 5.68 | 6.12 | 5.4 |
| CC(COc1ccc(Oc2ccccc2)cc1)Oc1ccccn1 (stereo not drawn) [Pyriproxyfen] | ≤ 0.5 µM | 1.37 µM | 5.55 | 5.44 | 5.14 | 4.87 | 4.84 | 4.7 | 4.81 |
| Fc1ccc(Oc2ccnc3cc(Cl)cc(Cl)c23)cc1 [Quinoxyfen] | ≤ 0.5 µM | 1.53 µM | 4.9 | 5.31 | 4.26 | 4.2 | 3.97 | 4 | 3.68 |
| O=[N+]([O-])c1c(Cl)c(Cl)c(Cl)c(Cl)c1Cl [Quintozene] | 200 µM | 194 µM | 5.85 | 5.74 | 5.72 | 5.88 | 5.93 | 5.94 | 5.11 |
| CCOC(=O)C(C)Oc1ccc(Oc2cnc3cc(Cl)ccc3n2)cc1 (stereo not drawn) [Quizalofop-ethyl] | 50 µM | 84.1 µM | 5.77 | 5.9 | 5.82 | 5.91 | 5.33 | 4.78 | 4.4 |
| COC(=O)[C@H]1[C@H]2C[C@@H]3c4[nH]c5cc(OC)ccc5c4CCN3C[C@H]2C[C@@H](OC(=O)c2cc(OC)c(OC)c(OC)c2)[C@@H]1OC [Reserpine] | 10 µM | 12.6 µM | 5.86 | 5.87 | 5.74 | 5.66 | 5.04 | 4.95 | 5.17 |
| CC(C)=CC1C(C(=O)OCc2coc(Cc3ccccc3)c2)C1(C)C (stereo not drawn) [Resmethrin] | 200 µM | > 200 µM | 5.75 | 5.64 | 5.46 | 5.58 | 5.84 | 5.8 | 4.98 |
| CC1=C(/C=C/C(C)=C/C=C/C(C)=C/C(=O)O)C(C)(C)CCC1 [Retinoic acid] | 10 µM | 16.6 µM | 5.96 | 5.78 | 5.8 | 5.58 | 4.47 | 4.33 | 4.41 |
| CO[C@H]1/C=C/O[C@@]2(C)Oc3c(C)c(O)c4c(O)c(c(/C=N/N5CCN(C)CC5)c(O)c4c3C2=O)NC(=O)/C(C)=C\C=C\[C@H](C)[C@H](O)[C@@H](C)[C@@H](O)[C@@H](C)[C@H](OC(C)=O)[C@@H]1C [Rifampicin] | 200 µM | > 200 µM | 5.96 | 5.92 | 5.94 | 5.98 | 5.84 | 5.84 | 5.56 |
| C=C(C)[C@H]1Cc2c(ccc3c2O[C@@H]2COc4cc(OC)c(OC)cc4[C@@H]2C3=O)O1 [Rotenone] | 200 µM | 181 µM | 5.16 | 6.51 | 6.12 | 6.26 | 6.39 | 6.45 | 4.07 |
| C=CCC1=C(C)[C@@H](OC(=O)[C@@H]2[C@@H](C=C(C)C)C2(C)C)CC1=O [S-Bioallethrin] | 50 µM | > 200 µM | 5.65 | 5.78 | 5.76 | 5.76 | 5.48 | 5.62 | 5.39 |
| C=CCc1ccc2c(c1)OCO2 [Safrole] | 200 µM | 188 µM | 6.12 | 6.08 | 5.92 | 6.02 | 5.96 | 6.05 | 5.62 |
| CCCCCCCCOC(=O)CCCCCCCCC(=O)OCCCCCCCC [Sebacic acid di-n-octyl ester] | 200 µM | 39.2 µM | 5.75 | 5.77 | 5.82 | 6.22 | 5.69 | 5.67 | 5.58 |
| CCC/C(=N\OCC)C1=C(O)CC(CC(C)SCC)CC1=O (stereo not drawn) [Sethoxydim] | 200 µM | 149 µM | 6.01 | 6.16 | 6.06 | 6 | 5.76 | 5.97 | 3.35 |
